Measurements taken from patent publication US20080300243A1, “Amide Derivatives as Ion-Channel Ligands and Pharmaceutical Compositions and Methods of Using the Same” (priority 2005, published 2008).

Tests used:
VR1 = VR1 (Homo sapiens, UniProt Q8NER1); experiment: Calcium uptake assay, low pH (proton) stimulus; format: cell-based; parameters: expressed in transfected cells; host or cells: T-REx HEK 293 (Invitrogen), pcDNA5/TO vector; details: HEK293; 0.3 μM compound; low pH agonist; HEK 293 cells expressing hVR1; read-out: Low pH % Inhib. @ 0.3 μM
[1] = Half-life in human liver microsomes (HLM); format: in vitro ADME; details: 1 μM compound, 0.78 mg/mL HLM, 37° C., NADPH; for half-life at 1 μM: human, human liver microsomes (HLM, HL101), pH 7.4
Protocol: Test compounds (1 μM) were incubated with 3.3 mM MgCl2 and 0.78 mg/mL HLM (HL101) in 100 mM potassium phosphate buffer (pH 7.4) at 37° C. on the 96-deep well plate. The reaction mixture was split into two groups, a non-P450 and a P450 group. NADPH was only added to the reaction mixture of the P450 group. An aliquot of samples of P450 group was collected at 0, 10, 30, and 60 min time point, where 0 min time point indicated the time when NADPH was added into the reaction mixture of P450 group. An aliquot of samples of non-P450 group was collected at −10 and 65 min time point. Collected aliquots were extracted with acetonitrile solution containing an internal standard. The precipitated protein was spun down in centrifuge (2000 rpm, 15 min). The compound concentration in supernatant was measured by LC/MS/MS system.
The half-life value was obtained by plotting the natural logarithm of the peak area ratio of compounds/internal standard versus time. The slope of the line of best fit through the points yields the rate of metabolism (k). This was converted to a half-life value using following equations:
Exemplary compounds of the invention were tested (1 μM), and were incubated with 3.3 mM MgCl2 and 0.78 mg/mL HLM (HL101) in 100 mM potassium phosphate buffer (pH 7.4) at 37° C. on the 96-deep well plate. The reaction mixture was split into two groups, a non-P450 and a P450 group. NADPH was only added to the reaction mixture of the P450 group. An aliquot of samples of the P450 group was collected at 0, 10, 30, and 60 minute time points, where the 0 minute time point indicated the time when NADPH was added into the reaction mixture of the P450 group. An aliquot of samples of the non-P450 group was collected at −10 and 65 minute time points. Collected aliquots were extracted with an acetonitrile solution containing an internal standard. The precipitated protein was spun down in a centrifuge (2000 rpm, 15 rain). The compound concentration in supernatant was measured by LC/MS/MS system. The half-life value (T1/2) was obtained by plotting the natural logarithm of the peak area ratio of compounds/internal standard versus time. The slope of the line of best fit through the points yields the rate of metabolism (k). This was converted to a half-life value using following equations: Half-life=ln 2/k.

Chain of VR1 (Q8NER1 whole entry): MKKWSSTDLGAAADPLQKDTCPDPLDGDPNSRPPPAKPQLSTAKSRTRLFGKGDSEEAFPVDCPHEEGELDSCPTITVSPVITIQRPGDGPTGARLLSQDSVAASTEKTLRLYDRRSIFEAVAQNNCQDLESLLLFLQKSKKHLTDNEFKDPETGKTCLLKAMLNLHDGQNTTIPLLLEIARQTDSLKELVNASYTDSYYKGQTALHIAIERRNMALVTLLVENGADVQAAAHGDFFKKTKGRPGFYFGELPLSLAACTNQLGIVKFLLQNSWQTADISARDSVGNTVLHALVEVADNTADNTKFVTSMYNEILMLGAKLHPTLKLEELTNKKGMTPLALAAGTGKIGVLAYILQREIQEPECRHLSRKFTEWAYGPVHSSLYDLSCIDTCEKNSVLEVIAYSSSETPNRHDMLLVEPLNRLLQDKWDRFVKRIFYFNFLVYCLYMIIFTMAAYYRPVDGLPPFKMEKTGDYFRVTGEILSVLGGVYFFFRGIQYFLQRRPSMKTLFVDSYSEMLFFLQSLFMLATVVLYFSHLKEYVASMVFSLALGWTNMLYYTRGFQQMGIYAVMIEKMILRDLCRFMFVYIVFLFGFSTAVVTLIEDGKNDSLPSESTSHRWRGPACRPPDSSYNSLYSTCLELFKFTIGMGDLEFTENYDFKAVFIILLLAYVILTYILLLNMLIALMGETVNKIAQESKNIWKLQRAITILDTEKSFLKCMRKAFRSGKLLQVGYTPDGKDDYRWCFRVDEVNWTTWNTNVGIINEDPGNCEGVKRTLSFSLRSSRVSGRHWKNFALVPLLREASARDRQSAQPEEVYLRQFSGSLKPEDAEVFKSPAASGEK

| Structure (SMILES) | inhibition at 0.3 µM (VR1) [%] | half-life at 1 μM [1] [h] | Half Life [1] [h] |
| --- | --- | --- | --- |
| O=C(Nc1ccc2c(c1)OCCN2)c1ccc(/C=C/C(F)(F)F)cc1 [Compound 63] |  |  | 0.4 |
| CC(C)(C)C#Cc1ccc(C(=O)Nc2cccc3cnccc23)cc1OCCN1CCOCC1 [Compound 60] |  |  | 0.35 |
| CC(C)(C)C#Cc1ccc(C(=O)Nc2cccc3cnccc23)cc1 [Compound 31] | 108 | 0.4 |  |
| CN1CCCc2ccc(NC(=O)c3ccc(/C=C/C(F)(F)F)cc3)cc21 [Compound 79] | 98 | 1.33 |  |
| C/C(=C\c1ccc(C(=O)Nc2cccc3cnccc23)cc1)C(F)(F)F [Compound 89] | 92 | 0.53 |  |
| O=C(Nc1cnc2ccccc2c1)c1ccc(/C=C/C(F)(F)F)cc1 [Compound 36] | 54 | 1.71 |  |
| Cc1cc(C#CC2CCCC2)ccc1C(=O)Nc1ccc2c(c1)OCC(CO)N2 (centres unmarked) [Compound 125] | 112 | 0.67 |  |
| O=C(Nc1ccc2c(c1)OCCN2)c1ccc(C#CC2CC2)c(OCC2CC2)c1 [Compound 94] | 85 | 0.48 |  |
| O=C(Nc1ccc2c(c1)OCC(CO)N2)c1ccc(C#CC2CCCC2)cc1F (centres unmarked) [Compound 126] | 96 | 1.86 |  |
| O=C(Nc1ccc2c(c1)OCC(CO)N2)c1ccc(/C=C/C(F)(F)F)cc1Cl (centres unmarked) [Compound 157] | 107 | 1.37 |  |
| CN1CCCc2ccc(NC(=O)c3ccc(C#CC(C)(C)C)cc3)cc21 [Compound 74] | 119 | 1.22 |  |
| CC(C)(C)C#Cc1ccc(C(=O)Nc2ccc3c(c2)OCCO3)cn1 [Compound 22] | 106 | 1.18 |  |
| COc1cc(/C=C/C(F)(F)F)ccc1C(=O)Nc1ccc2c(c1)OCCN2 [Compound 122] | 19 | 1.25 |  |
| C/C(=C\c1ccc(C(=O)Nc2ccc3c(c2)OCCN3)cc1)C(F)(F)F [Compound 93] | 105 | 0.65 |  |
| Cc1nc2cc(NC(=O)c3ccc(C#CC(F)(F)F)cc3)ccc2s1 [Compound 52] | 101 | 0.03 |  |
| O=C(Nc1cnc2ccccc2c1)c1ccc(C#CC(F)(F)F)cc1 [Compound 46] |  | 0.02 |  |
| O=C(Nc1ccc2c(c1)OCC(CO)O2)c1ccc(C#CC2CC2)cc1F (centres unmarked) [Compound 150] | 75 |  |  |
| Cc1cc(C#CC2CCCC2)ccc1C(=O)Nc1ccc2c(c1)OCC(CO)O2 (centres unmarked) [Compound 141] | 87 |  |  |
| Cc1nc2cc(NC(=O)c3ccc(/C=C/C(F)(F)F)cc3)ccc2s1 [Compound 53] | 81 |  |  |
| O=C(Nc1ccc2c(c1)OCCN2)c1ccc(/C=C/C(F)(F)F)cc1Cl [Compound 148] | 104 |  |  |

| Structure (SMILES) | inhibition at 0.3 µM (VR1) [%] | half-life at 1 μM [1] [h] | Half Life [1] [h] |
| --- | --- | --- | --- |
| Cc1cc(C#CC2CC2)ccc1C(=O)Nc1ccc2c(c1)OCCN2 [Compound 153] | 104 |  |  |
| CC(C)(C)C#Cc1ccc(C(=O)Nc2ccc3c(c2)OCCO3)c(F)c1 [Compound 155] | 95 |  |  |
| CN1CCCc2ccc(NC(=O)c3ccc(C#CC(C)(C)C)nc3)cc21 [Compound 85] | 34 |  |  |
| O=C(Nc1ccc2c(c1)OCC(CO)O2)c1ccc(/C=C/C(F)(F)F)cc1 (centres unmarked) [Compound 97] | 101 |  |  |
| Cn1ccc2cc(NC(=O)c3ccc(/C=C/C(F)(F)F)cc3)ccc21 [Compound 37] | 17 |  |  |
| CC(C)/C=C/c1ccc(C(=O)Nc2ccc3c(c2)Cc2ccccc2-3)cc1 [Compound 13] | 11 |  |  |
| C/C(=C/C(C)(C)C)c1ccc(C(=O)Nc2ccc3[nH]ccc3c2)cc1 [Compound 16] | 21 |  |  |
| O=C(Nc1ccc2c(c1)OC(CO)CO2)c1ccc(C#CC2CC2)cc1 (centres unmarked) [Compound 86] | 83 |  |  |
| CC(=CC(F)(F)F)c1ccc(C(=O)Nc2cccc3cnccc23)cc1 [Compound 76] | 88 |  |  |
| CC(=O)N1CC(C)(C)c2ccc(NC(=O)c3ccc(C#CC(C)(C)C)cc3)cc21 [Compound 68] | 140 |  |  |
| O=C(Nc1ccc2c(c1)OCC(CO)O2)c1ccc(C#CC2CC2)cc1 (centres unmarked) [Compound 87] | 98 |  |  |
| CC1(C)Oc2cc(NC(=O)c3ccc(/C=C/C(F)(F)F)cc3)ccc2NC1=O [Compound 71] | 10 |  |  |
| CC(C)/C=C/c1ccc(C(=O)Nc2ccc3[nH]ccc3c2)cc1 [Compound 9] | 37 |  |  |
| Cc1cc(/C=C/C(F)(F)F)ccc1C(=O)Nc1cccc2cnccc12 [Compound 77] | 90 |  |  |
| Cc1nc2cc(NC(=O)c3ccc(C#CC(C)(C)C)cc3)ccc2s1 [Compound 56] | 104 |  |  |
| C/C(=C\C(F)(F)F)c1ccc(C(=O)Nc2ccc3c(c2)OCCO3)cc1 [Compound 99] | 94 |  |  |
| Cn1ccc2cc(NC(=O)c3ccc(C#CC(C)(C)C)nc3)ccc21 [Compound 25] | 105 |  |  |
| CC(C)(O)COc1cc(C(=O)Nc2ccc3c(c2)OCCO3)ccc1C#CC1CC1 [Compound 110] | 1 |  |  |
| Cn1ccc2ccc(NC(=O)c3ccc(C#CC(C)(C)C)nc3)cc21 [Compound 44] | 87 |  |  |
| CC(C)(C)C#Cc1ccc(C(=O)Nc2ccc3c(c2)OCCN3)c(Cl)c1 [Compound 146] | 93 |  |  |

Continued, values first:

| inhibition at 0.3 µM (VR1) [%] | half-life at 1 μM [1] [h] | Half Life [1] [h] | Structure (SMILES) |
| --- | --- | --- | --- |
| 98 | 1.16 |  | Cc1cc(C#CC(C)(C)C)ccc1C(=O)Nc1cccc2cnccc12 [Compound 163] |
| 102 | 1.02 |  | Cc1cc(C#CC(C)(C)C)ccc1C(=O)Nc1cnc2ccccc2c1 [Compound 181] |
| 100 | 1.27 |  | Cc1cc(/C=C/C(F)(F)F)ccc1C(=O)Nc1ccc2cc(CO)cnc2c1 [Compound 228] |
| 105 | 2.03 |  | CC(C)(C)C#Cc1ccc(C(=O)Nc2cnc3ccccc3c2)c(Cl)c1 [Compound 164] |
| 96 | 0.58 |  | O=C(Nc1cccc2cnccc12)c1ccc(/C=C/C(F)(F)F)cc1F [Compound 160] |
| 112 |  |  | O=C(Nc1ccc2c(c1)OC[C@H](CO)N2)c1ccc(C#CC2CC2)cc1F [Compound 171] |
| 97 |  |  | CC(C)(C)C#Cc1ccc(C(=O)Nc2cnc3ccccc3c2)c(F)c1 [Compound 174] |
| 31 |  |  | Cc1cc(C#CC(C)(C)C)ccc1C(=O)Nc1cnc2cc(CO)ccc2c1 [Compound 216] |
| 55 |  |  | Cc1cc(/C=C/C(F)(F)F)ccc1C(=O)Nc1cccc2c(Cl)nccc12 [Compound 200] |
| 9 |  |  | O=C(Nc1cnc2ccccc2c1)c1ccc(/C=C/C(F)(F)F)cc1F [Compound 178] |
| 98 |  |  | CC(C)(C)C#Cc1ccc(C(=O)Nc2ccc3c(c2)OC[C@@H](CO)N3)c(Cl)c1 [Compound 183] |
| 6 |  |  | Cc1cc(C#CC(C)(C)C)ccc1C(=O)Nc1cnc2[nH]c(CO)nc2c1 [Compound 218] |
| 87 |  |  | Cc1cc(/C=C/C(F)(F)F)ccc1C(=O)Nc1ccc2c(c1)OCC(O)CN2 (centres unmarked) [Compound 189] |
| 87 |  |  | Cc1cc(/C=C/C(F)(F)F)ccc1C(=O)Nc1ccc2c(c1)OCCO2 [Compound 190] |
| 104 |  |  | CC(C)(C)C#Cc1cc(F)c(C(=O)Nc2ccc3c(c2)OCC(CO)N3)c(F)c1 (centres unmarked) [Compound 168] |
| 54 |  |  | Cc1cc(/C=C/C(F)(F)F)ccc1C(=O)Nc1cnc2c(c1)CNCC2 [Compound 229] |
| 67 |  |  | Cc1cc(C#CC(C)(C)C)ccc1C(=O)Nc1cccc2c(Cl)cccc12 [Compound 199] |
| 86 |  |  | Cc1nc2cc(NC(=O)c3ccc(C#CC(C)(C)C)cc3C)ccc2[nH]1 [Compound 215] |
| 99 |  |  | Cc1nc2cc(NC(=O)c3c(F)cc(C#CC(C)(C)C)cc3F)ccc2s1 [Compound 180] |
| 82 |  |  | Cc1cc(/C=C/C(F)(F)F)ccc1C(=O)Nc1ccc2ncccc2c1 [Compound 222] |
| 92 |  |  | Cc1cc(/C=C/C(F)(F)F)ccc1C(=O)Nc1ccc2c(c1)OCC(CO)O2 (centres unmarked) [Compound 185] |
| 107 |  |  | Cc1nc2cc(NC(=O)c3ccc(C#CC(C)(C)C)cc3Cl)ccc2s1 [Compound 165] |
